Here are results for 11 molecules from patent US8232063B2, “H+-gated ion channel” (University of Utah Research Foundation, priority 2004, dated 2012).

In one test the target is T1, PBO-5 homomers (Caenorhabditis elegans, UniProt G5ECT0).
T1 construct: cloned into the pCR2.1 TA cloning vector (Invitrogen) and a full length clone pPD68 was generated; expressed in transfected cells; host or cells: Xenopus oocytes injected with PBO-5 cRNA (pSGEM-based plasmid pAB20)
T1 sequence (G5ECT0 22-504 isoform G5ECT0-2 limits assumed): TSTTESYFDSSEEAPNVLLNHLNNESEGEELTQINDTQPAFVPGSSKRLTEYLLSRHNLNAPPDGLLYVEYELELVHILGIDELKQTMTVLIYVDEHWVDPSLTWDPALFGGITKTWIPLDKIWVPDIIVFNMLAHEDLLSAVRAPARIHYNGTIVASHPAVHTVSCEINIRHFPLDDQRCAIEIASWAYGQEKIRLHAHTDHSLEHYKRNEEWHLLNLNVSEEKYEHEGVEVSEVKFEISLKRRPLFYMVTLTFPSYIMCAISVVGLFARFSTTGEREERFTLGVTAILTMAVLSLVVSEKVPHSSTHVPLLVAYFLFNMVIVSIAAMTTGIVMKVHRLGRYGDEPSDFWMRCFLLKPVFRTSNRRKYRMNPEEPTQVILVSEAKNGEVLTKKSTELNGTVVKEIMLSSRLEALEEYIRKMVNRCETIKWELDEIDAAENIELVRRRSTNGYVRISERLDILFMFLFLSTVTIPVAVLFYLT
Kind of test: Two-electrode voltage clamp of Xenopus oocytes injected with PBO-5 cRNA (homomers). The test is classed as cell-based, C. elegans. The protocol:
(§1) Capped RNA was prepared using the T7 mMessage mMachine kit (Ambion). Xenopus oocytes were collected and coinjected with 25 ng each of PBO-5 and PBO-8 cRNA and two-electrode voltage clamp recordings were performed 3-5 days post-injection. The standard bath solution for dose-response and control I-V experiments was Ringer's (in mM): 115 NaCl, 1.8 […], 10 Bis-Tris Propane (pH 7.4 Acetic acid). For dose-response experiments, each oocyte was subjected to a 5 second application of test pH (7.0 - 5.0) with 2 minutes of pH 7.4 wash between test applications.
To determine if PBO-5 can form a homo-oligomeric receptor, we injected PBO-5 cRNA in Xenopus oocytes. […] Two-electrode voltage clamp recordings were used to assay receptor functionality.
To determine if PBO-5 and PBO-8 can co-assemble to form a functional receptor, we injected PBO-5 and PBO-8 cRNA into Xenopus oocytes. […] To determine the possible signal that mediates posterior body contraction we examined the pbo-4 gene.
On the technique in general: Two-electrode voltage clamp holds a large cell at a set potential and records current.

The next test relates to PBO-5/PBO-8 receptors. Kind of test: Two-electrode voltage clamp of Xenopus oocytes coinjected with PBO-5 and PBO-8 cRNA. The format is cell-based, C. elegans. The conditions noted are these: for run-down (use-dependent block) of H+-evoked current by the buffer of the extracellular solution: repeated pH 6.8 test pulses. The protocol: as §1
Ion selectivity experiments: All points are responses to test pulse applications of pH 6.8 for 5 seconds. The reversal potential of PBO-5/PBO-8 expressing oocytes were first determined in standard Ringer's (in mM): 115 NaCl, 1.0 CaCl2, 10 Bis-Tris Propane (pH 7.4, acetic acid). For chloride permeability a simplified solution was used, chloride-free (in mM): 115 Na^+ gluconate, 1.0 CaCl2, 10 Bis-Tris Propane (pH 7.4 acetic acid). For Na^+ permeability a simplified solution was used, Na^+ free (in mM): 115 mM N-methyl D-glucamine (NMDG), 1.8 CaCl2, 10 Bis-Tris Propane (pH 7.4 acetic acid)). All solutions were brought to pH by addition of NaOH or acetic acid. To determine K^+ permeability, I-V experiments were performed in K^+ Ringer's (in mM): 115 K^+-gluconate, 1.0 CaCl2, 10 Bis-Tris Propane (pH=7.4 acetic acid). To determine Ca^2+ permeability extracellular Na^+ was lowered to 90 mM and extracellular CaCl2 was increased to 3 mM and 10 mM, compare to 1 mM Ca^2+ control. To better resolve calcium permeability, the Na^+ free solution was used except CaCl2 was increased ten-fold, 18 mM CaCl2 (in mM): 115 NMDG, 18 CaCl2, 10 Bis-Tris Propane, (pH 7.4 acetic acid). Osmolarity was measured for each solution and was maintained at 240 mOsm by the addition of sucrose. All recordings were done at room temperature. We used 3M KCl filled electrodes with a resistance between 1-3 MΩ. We used a 3M KCl agar bridge to minimize liquid junction potentials, and all liquid junctions potentials arising at the tip of the recording electrode were corrected online.
Data analysis. Data acquisition and analysis were performed using Axograph (Axon Instruments) software, and curve fitting and statistical analysis were performed with Prism (Graphpad). Dose-response curves from individual oocytes were normalized to the maximum and minimum values and averaged for at least eleven oocytes. Normalized data were fit to the four-parameter equation derived from the Hill equation: Y=Min+(Max−Min)/(1+10(Log EC50-X)(nH)), where Max is the maximal response, Min is the response at the lowest drug concentration, X is the logarithm of agonist concentration, EC50 is the half-maximal response, and nH is the Hill coefficient. Error bars represent the standard error of the mean.

The subject of another test is PBO-8 homomers. Kind of test: Two-electrode voltage clamp of Xenopus oocytes injected with PBO-8 cRNA (homomers). The format is cell-based, C. elegans.
For test [1], the system named is posterior body contraction. Kind of test: Posterior body contraction of the defecation cycle in vivo. Details: species or system C. elegans. The following applies: 100 mM, pH 7.2, injected into pseudocoelomic space. The protocol:
To determine if H^+ ions are required to initiate a posterior body contraction endogenous acidification of the pseudocoelomic space is blocked. For example, 100 mM Bis-Tris Propane buffered saline (pH 7.2) is injected into the pseudocoelomic space of an animal and defecation cycles postinjection observed. […] The injected animals should phenocopy both pbo-4 and pbo-5 mutants.
Alternatively, a caged buffer is used to assay the requirement for H^+ activation of PBO-5/PBO-8 receptors in vivo. For example, animals are injected with a caged buffer (Molecular Probes) and the buffer uncaged, by flash photolysis, as a posterior body contraction is about to occur. An advantage of the latter scheme is that an animal can be injected first and then observed for a number of cycles to determine if it retains normal defecation cycles, and in particular posterior body contractions. After quantification of a number of defecation cycles, the buffer is uncaged and the animal observed for a specific loss of posterior body contraction. Li addition, the inverse experiment, where caged protons are injected, may be conducted to elicit an out of phase posterior body contraction by uncaging the protons during the intercycle.
The posterior body contraction occurs via a calcium-regulated mechanism. […]

[2] abbreviates: Xenopus oocytes, two-electrode voltage clamp.

“Also recorded” adds a separate entry of the source. Where two headings read alike, the source gives them in different places.

Consider `NCCc1c[nH]c2ccc(O)cc12` [serotonin], for which the “activation of PBO-5 homomers (functional response)” value (“activation of PBO-5 homomers” below) at PBO-5 homomers is given as “failed to elicit a functional response”; at PBO-5 homomers (listed as 5-HT), “lacked the ability to activate”. In addition, the “activation of PBO-5/PBO-8 heteromers” value with PBO-5/PBO-8 receptors (setting [2]) is given as “lacked the ability to activate”. Moreover, the “activation of PBO-8 homomers” value in the test on PBO-8 homomers is listed as “lacked the ability to activate”.
For `NCC(=O)O` [glycine], on PBO-5 homomers, the “activation of PBO-5 homomers” value is recorded as “failed to elicit a functional response; also recorded: lacked the ability to activate”. In the test with PBO-5/PBO-8 receptors, the “activation of PBO-5/PBO-8 heteromers” value was “lacked the ability to activate”. The “activation of PBO-8 homomers” value with PBO-8 homomers is listed as “lacked the ability to activate”.
As to `N=C(N)NC(=O)c1nc(Cl)c(N)nc1N` [amiloride], the “block of PBO-5/8 gating” value with PBO-5/PBO-8 receptors (1 mm amiloride) is on record as “did not result current block”.
On to `O=S(=O)(O)CCN1CCOCC1` [MES, 2-(N-Morpholino)-ethanesulfonic acid], for which the “run-down (use-dependent block) of H+-evoked current by the buffer of the extracellular solution” value (“run-down (use-dependent block)” for short) in the test on PBO-5/PBO-8 receptors is “did not cause current run-down”.
As for `OCC(CO)(CO)NCCCNC(CO)(CO)CO` [Bis-Tris Propane, 1,3-Bis[tris(hydroxymethyl)methylamino) propane], in test [1], the “posterior body contraction after injection of buffered saline into the pseudocoelomic space” value is “fail to initiate a posterior body contraction”. In the test with PBO-5/PBO-8 receptors, the “run-down (use-dependent block)” value was “did not cause current run-down”.
Consider `[Ca+2]` [Ca^2+], for which the “maximal activation of PBO-5/PBO-8 on increasing extracellular Ca2+” value with PBO-5/PBO-8 receptors (pH 6.0) is given as “no effect on maximal activation”. In the test on PBO-5/PBO-8 receptors (pH 6.8, 10.0 mM vs 1.0 mM Ca2+), the “effect of extracellular Ca2+ on gating of PBO-5/PBO-8 (mode of action)” value is on record as “inhibit gating; also recorded: competitive antagonist”. Further, in the test with PBO-5/PBO-8 receptors (pH 7.0 and 6.8, Ca2+ increased to 3 mM and 10 mM), the “H-evoked responses compared to 1 mM Ca2+ control” value is “significantly reduced”.
For the molecule `N[C@@H](CCC(=O)O)C(=O)O` [glutamate], the “activation of PBO-5 homomers” value at PBO-5 homomers is “lacked the ability to activate”. Besides, the “activation of PBO-5/PBO-8 heteromers” value with PBO-5/PBO-8 receptors (setting [2]) was “lacked the ability to activate”. Further, the “activation of PBO-8 homomers” value in the test with PBO-8 homomers was “lacked the ability to activate”.
With `NCCCC(=O)O` [GABA, γ-aminobutyric acid], the “activation of PBO-5 homomers” value at PBO-5 homomers is “failed to elicit a functional response; also recorded: lacked the ability to activate”. Moreover, in the test with PBO-5/PBO-8 receptors (1 mM ligand, pH 6.8), the “co-activation: pH 6.8 plus ligand compared with pH 6.8 only application” value is “not significantly different”. Also, the “activation of PBO-5/PBO-8 heteromers” value with PBO-5/PBO-8 receptors (setting [2]) is “lacked the ability to activate”. Besides, the “activation of PBO-8 homomers” value in the test with PBO-8 homomers is on record as “lacked the ability to activate”.
For `[1H+]` [H^+], the pH50 on PBO-5/PBO-8 receptors (1 mM Ca2+ control conditions) amounted to 6.88; at PBO-5/PBO-8 receptors (10 mM Ca2+ test conditions), 6.59. Also, the “activation of PBO-5/PBO-8 heteromers” value in the test on PBO-5/PBO-8 receptors (setting [2]) was “sufficient to activate”. Further, in the test on PBO-5/PBO-8 receptors (perfusion buffer pH 7.4), the “pH of 10% maximal activation” value is reported as approximately 7.0. On PBO-5/PBO-8 receptors (voltage-clamped at -60 mV, test pH 5 seconds, standard Ringer's, n=18), the “pH50 (half-maximal activation)” value came to 6.83±0.01.
`O=S(=O)(O)CCN1CCN(CCO)CC1` [HEPES, N-2-hydroxyethylpiperazine-N′-2-ethanesulfonic acid]: the “run-down (use-dependent block)” value with PBO-5/PBO-8 receptors is listed as “very rapid rundown; also recorded: inhibitory to the receptor”.
Take d-tubocurare: the “pharmacological block of PBO-5/8 responses” value with PBO-5/PBO-8 receptors (cholinergic antagonist applied to PBO-5/8 expressing cells) is “all attempts to pharmacologically block PBO-5/8 responses failed”.
